Measured values published in patent publication US12691129B2, “Use of carotenoids in the treatment of senescence-related diseases” (ALGAKTIV, S.L., priority 2019, dated 2026).
Where two headings read alike, the source gives them in different places.

Tests used:
[1] = tested on: MV-4-11 cells; assay: MTT cytotoxicity assay in MV-4-11 cells; assay type: cell-based, Human; conditions: 6 replicates, read-out: IC50 (μM) (mean ± SD)
Description: Human MV-4-11 and PL-21 cell lines were used to evaluate fucoxanthin and amarouciaxanthin A effects in combination with the BCL-2 family inhibitor Navitoclax (ABT-263) and Venetoclax (ABT-199). […] For cytotoxicity determination, MV-4-11 cells and PL-21 cells were plated in 96-well microplates at a density of 10^4 cells/well. After 24 hours, different concentration combinations of Navitoclax or Venetoclax and fucoxanthin or amarouciaxanthin A were added. […] DMSO was used as vehicle control. After this period, 50 μL of SDS 10% were added to the negative control wells (0% viability, 100% mortality). Then, culture media was replaced by fresh media with 10 μL of MTT 5 mg/ml in PBS in each well. […] Next, culture media was removed and 100 μL of extraction buffer (SDS, DSA, acetic acid 2%, pH 4.7) were added to each well. […] Finally, plates were read at 570 nm with the spectrophotometer Multiskan Ascent (MTX Lab systems). The potency of each product was determined through the calculation of IC50 (half maximal inhibitory concentration).

[2] = tested on: α-SMA in HSC from cirrhotic rats; assay: α-SMA expression in primary HSC from cirrhotic rats (qPCR, western blot); assay type: cell-based, rat; conditions: 10 μM, vs vehicle; for inhibition of α-SMA transcription: quantitative PCR
Description: (§1) To evaluate the effect of amarouciaxanthin A on HSC activation, the immortalized human cell line LX2 was used. Additionally, primary HSC were extracted from cirrhotic rats which had been subjected to carbon tetrachloride inhalation. In both cases, cells were cultured for 24 h before adding the compound. After that, either amarouciaxanthin A at 10 μM or the vehicle (DMSO) was added to the culture. Cells were harvested at 24 and 72 h post treatment and were lysed to analyze fibrotic biomarkers. Gene transcription was determined by quantitative PCR at 24 and 72 h and protein expression by western blotting at 72 h. α-smooth muscle actin (α-SMA) was analyzed in rat HSC. Collagen I al (COL1A1), which is the main component of the extracellular matrix, was analyzed in LX2.

[3] = tested on: COL1A1 in LX2 cells; assay: COL1A1 expression in LX2 cells (qPCR, western blot); assay type: cell-based, human; conditions: 10 μM, vs vehicle; for inhibition of COL1A1 transcription: quantitative PCR
Description: as §1

[4] = tested on: BJ-11 cells; assay: Senescence associated β-galactosidase (SA-β-Gal) staining in BJ-11 cells; assay type: cell-based, human
Description: (§2) BJ-11 cell line (human primary skin fibroblasts) was cultured in MEM supplemented with 10% FCS plus 2 mM L-glutamine. All cells were cultured at 37° C. in a humidified 5% CO2-atmosphere and were consistently free of mycoplasma, as evaluated by PCR. All passages were performed between 80 and 90% of confluence and with viability greater than 90%.
In order to evaluate the effects of fucoxanthin on senescence, 10^4 BJ-11 cells were seeded in 24-well plates. Cultures were incubated with different concentrations of palbociclib (Palbo) or doxorubicin (Doxo), as senescence inductors, and fucoxanthin (Fuco), as described in Table 6.
Doxorubicin treatments were performed only for 24 hours. After that, doxorubicin was removed and cells were cultured in complete culture medium during the periods of time indicated below. On the other hand, palbociclib was constantly present in the culture medium and added fresh periodically.
Two different approaches were followed: • Approach 1: Fucoxanthin effects on senescence prevention
After 7 days, β-galactosidase activity was determined.
After that, treatment with fucoxanthin was performed for 7 days. At the end of this period […] activity was determined.
After treatments, SA-β-galactosidase staining was used for the determination of senescence-associated β-galactosidase expression in BJ-11 cells. β-galactosidase staining was performed based on manufacturer's recommendations (9860S, Cell Signaling Technology). Growth media was removed from the cells and the plate was rinsed once with PBS. Then, fixative solution was added to each well and cells were allowed to fix for 10-15 min at room temperature. The plate was rinsed twice with PBS before adding β-Galactosidase Staining Solution to each well. Finally, the plate was incubated at 37° C. for 24 h in a dry incubator (no CO2) for preventing changes in pH, which may affect staining results. The amount of cells positive in β-galactosidase activity (stained in blue) was evaluated by manual stained-cell counting.

[5] = tested on: Sk-Mel-103 cells; assay: MTT cytotoxicity of Navitoclax in Sk-Mel-103 cells after palbociclib/fucoxanthin pretreatment; assay type: cell-based, human; conditions: for IC50: 6 replicates, read-out: IC50 of Navitoclax (μM) (mean ± SD)
Description: as §2, with “Sk-Mel-103” for “BJ-11”, “(human” for “(human primary”, “melanoma)” for “fibroblasts)”, “DMEM-high glucose” for “MEM”, “FCS.” for “FCS plus 2 mM L-glutamine.”
10^6 Sk-Mel-103 cells were seeded in 24-well plates. Cultures were incubated with palbociclib (Palbo), as a senescence inductor; fucoxanthin; or a combination of them, as described in Table 4. After 7 days, cultures were treated with different concentrations of the BCL2 inhibitor Navitoclax. The cytotoxicity of each condition was determined through the calculation of IC50 (half maximal inhibitory concentration) by an MTT assay.
For cytotoxicity determination, cells were plated in 96-well microplates at a density of 10^4 cells/well. After the initial treatments described above, different concentrations of Navitoclax were added. Plates were then incubated for 72 hours at 37° C. and 5% CO2. DMSO was used as vehicle control. After this period, 50 μL of SDS 10% were added to the negative control wells (0% viability, 100% mortality). Then, culture media was replaced by fresh media with 10 μL of MTT 5 mg/ml in PBS in each well. Plates were incubated for 4 hours at 37° C. and 5% CO2. Next, culture media was removed and 100 μL of extraction buffer (SDS, DSA, acetic acid 2%, pH 4.7) were added to each well. After incubating plates for 1 hour at 37° C. and 5% CO2, cultures were homogenized. Finally, plates were read at 570 nm with the spectrophotometer Multiskan Ascent (MTX Lab systems). The potency of each product was determined through the calculation of IC50 (half maximal inhibitory concentration).

[6] = tested on: PL-21 cells; assay: MTT cytotoxicity assay in PL-21 cells; assay type: cell-based, Human; conditions: 72 hours, 6 replicates, read-out: IC50 (μM) (mean ± SD)
Description: Human MV-4-11 and PL-21 cell lines were used to evaluate fucoxanthin and amarouciaxanthin A effects in combination with the BCL-2 family inhibitor Navitoclax (ABT-263) and Venetoclax (ABT-199). Cells were cultured in RPMI media supplemented with 10% FCS at 37° C. in a humidified 5% CO2-atmosphere, and were consistently free of mycoplasma, as evaluated by PCR. All passages were performed between 80 and 90% of confluence and with viability above 90%.
For cytotoxicity determination, MV-4-11 cells and PL-21 cells were plated in 96-well microplates at a density of 10^4 cells/well. After 24 hours, different concentration combinations of Navitoclax or Venetoclax and fucoxanthin or amarouciaxanthin A were added. Plates were incubated for 72 hours at 37° C. and 5% CO2. DMSO was used as vehicle control. After this period, 50 μL of SDS 10% were added to the negative control wells (0% viability, 100% mortality). Then, culture media was replaced by fresh media with 10 μL of MTT 5 mg/ml in PBS in each well. Plates were incubated for 4 hours at 37° C. and 5% CO2. Next, culture media was removed and 100 μL of extraction buffer (SDS, DSA, acetic acid 2%, pH 4.7) were added to each well. […] Finally, plates were read at 570 nm with the spectrophotometer Multiskan Ascent (MTX Lab systems). The potency of each product was determined through the calculation of IC50 (half maximal inhibitory concentration).

[7] = tested on: IL-1β, IL-6 and IL-8 secretion by SK-Mel-103 cells; assay: Secreted interleukins (ELISA) in senescent SK-Mel-103 cells; assay type: cell-based, human; conditions: fucoxanthin 4 μM, p value<0.01
Description: as §2, with “Sk-Mel-103” for “BJ-11”, “(human” for “(human primary”, “melanoma)” for “fibroblasts)”, “DMEM-high glucose” for “MEM”, “FCS.” for “FCS plus 2 mM L-glutamine.”
10^6 Sk-Mel-103 cells were seeded in 24-well plates. Cultures were incubated with palbociclib or doxorubicin, as senescence inductors; fucoxanthin; or a combination of them, as described in Table 9. After treatments, cells and supernatants were collected by centrifugation and stored at −20° C.
Secretion of IL-1β, IL-6 and IL-8 was quantified in the supernatants by commercial ELISA kits (DY201, DY206, DY208, R&D Systems) following manufacturer's instructions. Obtained values were normalized by total cell protein content in each well at the end of the experiment, quantified by Bradford assay (B6916, Sigma-Aldrich). A second normalization was performed by dividing the secreted interleukin after fucoxanthin incubations by its corresponding control of senescent cells.

[8] = senescence induced with doxorubicin 125 nM, vs senescent cells (FIG. 2)
[9] = senescence induced with palbociclib 1 μM, vs senescent cells (FIG. 1)

CC1=CC(=O)CC(C)(C)[C@@]1(O)CC(=O)/C(C)=C/C=C/C(C)=C/C=C/C=C(C)/C=C/C=C(\C)C=C=C1C(C)(C)C[C@H](O)C[C@@]1(C)O [Amarouciaxanthin A, amarouciaxanthin A]
IC50 ([1]; 72 hours): 1.45 ± 0.27 µM | inhibition of α-SMA transcription ([2]; 24 h): around 80% | inhibition of α-SMA transcription ([2]; 72 h): around 80% | reduction of α-SMA expression at the protein level ([2]; 72 h, western blotting): 95% | inhibition of COL1A1 transcription ([3]; 24 h): around 50% | inhibition of COL1A1 transcription ([3]; 72 h): around 80% | reduction of collagen expression (protein) ([3]; 72 h, western blot): around 95%

COc1cccc2c1C(=O)c1c(O)c3c(c(O)c1C2=O)C[C@@](O)(C(=O)CO)C[C@@H]3O[C@H]1C[C@H](N)[C@H](O)[C@H](C)O1 [Doxorubicin, doxorubicin, reference compound]
Percentage of cells positive in β-galactosidase activity ([4]; Approach 1 (prevention), senescent cells: doxorubicin 25 nM (24 hours) alone, 7 days): >80% | Percentage of cells positive in β-galactosidase activity ([4]; Approach 2 (reversion), senescent cells: doxorubicin 25 nM alone): >80%

CC1(C)CCC(c2ccc(Cl)cc2)=C(CN2CCN(c3ccc(C(=O)NS(=O)(=O)c4ccc(N[C@H](CCN5CCOCC5)CSc5ccccc5)c(S(=O)(=O)C(F)(F)F)c4)cc3)CC2)C1 [Navitoclax, navitoclax]
IC50 ([1]; 72 hours): 0.14 ± 0.01 µM | IC50 ([5]; Sk-Mel-103 control cells (no pretreatment)): 8.02 ± 1.31 µM | IC50 ([5]; Sk-Mel-103 control cells + fucoxanthin 4 μM pretreatment 7 days): 4.79 ± 0.911 µM | IC50 ([5]; Sk-Mel-103 senescent cells (palbociclib 1 μM) + fucoxanthin 4 μM pretreatment 7 days): 0.055 ± 0.005 µM | IC50 ([5]; Sk-Mel-103 senescent cells (palbociclib 1 μM, 7 days)): 0.136 ± 0.012 µM | IC50 [6]: 1.22 ± 0.12 µM

CC(=O)c1c(C)c2cnc(Nc3ccc(N4CCNCC4)cn3)nc2n(C2CCCC2)c1=O [Palbociclib, palbociclib, reference compound]
Percentage of cells positive in β-galactosidase activity ([4]; Approach 1 (prevention), senescent cells: palbociclib 1 μM alone, 7 days): >98% | Percentage of cells positive in β-galactosidase activity ([4]; Approach 2 (reversion), senescent cells: palbociclib 1 μM alone): >95%

CC1(C)CCC(c2ccc(Cl)cc2)=C(CN2CCN(c3ccc(C(=O)NS(=O)(=O)c4ccc(NCC5CCOCC5)c([N+](=O)[O-])c4)c(Oc4cnc5[nH]ccc5c4)c3)CC2)C1 [Venetoclax, venetoclax, reference compound]
IC50 ([1]; Homo sapiens, MV4-11, 72 hours): 0.0048 µM

fucoxanthin
IC50 ([1]; 72 hours): 1.34 ± 0.07 µM | effect of fucoxanthin pretreatment on senolytic activity of Navitoclax ([5]; Sk-Mel-103, fucoxanthin 4 μM pretreatment 7 days, summary of Table 5): increased the senolytic activity of Navitoclax | Percentage of cells positive in β-galactosidase activity ([4]; Approach 1 (prevention), fucoxanthin 10 μM simultaneously with doxorubicin 25 nM, 7 days): <5% | Percentage of cells positive in β-galactosidase activity ([4]; Approach 1 (prevention), fucoxanthin 10 μM simultaneously with palbociclib 1 μM, 7 days): <5% | Percentage of cells positive in β-galactosidase activity ([4]; Approach 2 (reversion), doxorubicin 25 nM, 7 days, then fucoxanthin 10 μM for 7 days): <5% | Percentage of cells positive in β-galactosidase activity ([4]; Approach 2 (reversion), palbociclib 1 μM for 7 days, then fucoxanthin 10 μM for 7 days): <5% | percentage of senescent cells positive in β-galactosidase activity after treatment (in words) ([4]; BJ-11, doxorubicin or palbociclib induced senescence, prevention and reversion, summary of Tables 7 and 8): reduced | secretion of IL-1β [7, 8]: significantly decreased | secretion of IL-6 [7, 8]: significantly decreased | secretion of IL-8 [7, 8]: significantly decreased | secretion of IL-1β [7, 9]: significantly decreased | secretion of IL-6 [7, 9]: significantly decreased | secretion of IL-8 [7, 9]: significantly decreased | IC50 [6]: 10.5 ± 1.55 µM
